Measured values reported in patent publication US9284276B2, “N-ethyl-N-phenyl-1,2-dihydro-4,5-di-hydroxy-1-methyl-2-oxo-3-quinolinecarboxamide, preparation and uses thereof” (TEVA PHARMACEUTICAL INDUSTRIES, LTD., priority 2012, dated 2016).

Tests used:
[1] = in vivo; cited from earlier work
[2] = Formation of 5-HLAQ on light exposure of laquinimod, determined by HPLC; format: physicochemical
Experimental: Various forms of laquinimod were exposed to light, as specified below. Presence of 5-HLAQ was determined using HPLC.

[3] = system: active MRI lesions in relapsing MS; conditions: Polman et al. 2005; cited from earlier work
[4] = system: acute experimental autoimmune encephalomyelitis (aEAE) model; conditions: U.S. Pat. No. 6,077,851; cited from earlier work
[5] = Influence of blister pack material on photo-degradation of laquinimod 0.6 mg capsules; format: physicochemical
Experimental: The goal of this study is to examine the photo-degradation of laquinimod sodium capsules, 0.6 mg, packed in blisters of various materials.
One batch of laquinimod sodium capsules, 0.6 mg/capsule was packed into four different types of blisters: PVC/AC/PVDC/PVLE/P058 504 142 (transparent), PVC/PE-EVOH/AC (A 300) G03 140 MM (transparent), A-/PVC/PE-EVOH/AC-PC (opaque), and KPMAX WH (opaque). Control was the same batch not exposed to sunlight in HDPE 50 cc DUMA™ bottle.

[6] = Stability of 5-HLAQ in solvents; format: physicochemical; conditions: in most of the organic solvents as well as in aqueous acidic conditions
Excerpt: N-Ethyl-N-phenyl-1,2-dihydro-4,5-di-hydroxy-1-methyl-2-oxo-3-quinolinecarboxamide (5-HLAQ) is not stable in most of the organic solvents as well as in aqueous acidic conditions. Therefore common purification methods were extremely difficult. The di-acetate derivative Compound 3 is an elegant way to purify the material followed only by basic hydrolysis, acidic precipitation and rapid filtration.

CCN(C(=O)c1c(O)c2c(Cl)cccc2n(C)c1=O)c1ccccc1 [Laquinimod sodium]
Oral bioavailability [1]: high

CCN(C(=O)c1c(O)c2c(Cl)cccc2n(C)c1=O)c1ccccc1 [Laquinimod, N-ethyl-N-phenyl-1,2-dihydro-4-hydroxy-5-chloro-1-methyl-2-oxoquinoline-3-carboxamide]
Presence of 5-HLAQ (wt %) ([2]; Light chamber 310-400 nm (~8 hrs.), 0.05 mg/ml in 0.02M HCl): 1.5 wt % | Presence of 5-HLAQ (wt %) ([2]; Light chamber 310-400 nm (~8 hrs.), 0.05 mg/ml in 0.02M NaOH): 71 wt % | Presence of 5-HLAQ (wt %) ([2]; Light chamber 310-400 nm (~8 hrs.), 1 mg/ml in 0.02M NaOH, relative to laquinimod before photodegradation): 33 wt % | Presence of 5-HLAQ (wt %) ([2]; Sunlight cabinet (5 minutes), 0.09 mg/ml aqueous solution): 11.8 wt % | Development of active MRI lesions [3]: can reduce development of active MRI lesions | Efficacy in aEAE model [4]: effective | Sensitivity to light [5]: sensitive to light

CCN(C(=O)c1c(O)c2c(O)cccc2n(C)c1=O)c1ccccc1 [Compound 5-HLAQ, N-Ethyl-N-phenyl-1,2-dihydro-4,5-di-hydroxy-1-methyl-2-oxo-3-quinolinecarboxamide]
Stability in solvents [6]: not stable
